# According to PMC6863955, “Quantitation of a Novel Engineered Anti-infective Host Defense Peptide, ARV-1502: Pharmacokinetic Study of Different Doses in Rats and Dogs” (Frontiers in Chemistry, 2019):
# Read-outs that look alike come from different tables or passages of the source. Non-standard residues stand in square brackets, D forms with d. Residues, ends and D or L forms follow the SMILES beside them. Ac6c = NC1(C(=O)O)CCCCC1
# What was measured:
# [1] = rat, in vivo
# Protocol: (§1) A series of eight blood samples (~0.5 mL each) was collected in rats on Day 1. Following IM administration, the blood was collected at 5, 15, 30, and 45 min and at 1, 1.5, 2, and 3-h post-dose. After IV administration, blood was collected at 2, 5, 15, 30, and 45 min and at 1, 1.5, and 2-h post-dose. Animals were euthanized after the last blood collection by carbon dioxide asphyxiation followed by cervical dislocation and discarded without further examination. Safety parameters monitored on the study were mortality and clinical signs. Body weights (BW) were recorded to calculate the dose only. Blood sampling was performed for pharmacokinetic evaluation.
# (§2) Aliquots of rat or Beagle plasma (20 μL) were spiked with standard peptide Onc72 (0.35 μg/mL plasma, 1.2 μL). Samples were diluted with aqueous TFA in two steps (0.2% v/v, 20 μL and 0.1% v/v, 260 μL) and loaded on an Oasis HLB 96-well-SPE-plate (5 mg sorbent per well, Waters). The samples were washed twice with aqueous TFA (0.1% v/v, 1 mL) and eluted in two steps with aqueous acetonitrile (30% v/v, 150 μL) containing formic acid (0.1% v/v). The fractions were dried in a vacuum centrifuge (SpeedVac, 60°C), reconstituted with aqueous methanol (75% v/v, 20 μL) containing formic acid (0.1% v/v), and diluted with aqueous acetonitrile (3% v/v, 100 μL) containing formic acid (0.1%).
# (§3) A quadrupole-Orbitrap mass spectrometer (Q Exactive plus™, Thermo Scientific) was coupled online to an uHPLC (Vanquish™, Thermo Scientific). Separation was achieved on a Jupiter C18 column (inner diameter: 1 mm, length: 150 mm, particle size: 5 μm, pore size: 130 Å, Phenomenex Ltd.) at 55°C using a flow rate of 200 μL/min and a linear gradient of 3 to 23% (v/v) aqueous acetonitrile containing formic acid (0.1%) within 5 min.
# (§4) Pharmacokinetic datasets were evaluated with a PKSolver add-in for Microsoft Excel using a non-compartmental analysis (Zhang et al., [2010]).
# [2] = dog, in vivo
# Protocol: (§5) The objective of the study conducted at ITR Laboratories Canada Inc (Baie d'Urfe, Quebec, Canada) was to determine the pharmacokinetic profile of ARV-1502 following single intravenous or intramuscular injection administration to Sprague-Dawley rats and Beagle dogs.
# (§6) For the dog study, ARV-1502 was administered once IM (divided equally over 2 sites) and once IV (1 week apart) as detailed in Table 2. Following dosing, blood was collected at the same time points noted above for the rat study.
# as §2, §3
# (§7) ARV-1502 was quantitated by the peak area of an extracted ion chromatogram (XIC) obtained from the MS/MS using Xcalibur 4.0.27.21 software. The peak area of ARV-1502 corrected by using the peak area of Onc72.
# in vivo [3] = conditions: Sprague-Dawley, rat; for level at 0.5 h: plasma concentration after 30 min
# Protocol: as §1, §2, §3, §4
# in vivo [4] = conditions: Beagle, dog
# Protocol: as §5, §6, §2, §3, §7
smiles,measurement,setting,value
"CC(C)C[C@H](NC(=O)[C@H](Cc1ccc(O)cc1)NC(=O)[C@@H]1CCCN1C(=O)[C@H](CCCNC(=N)N)NC(=O)[C@@H]1CCCN1C(=O)[C@H](CCCCN)NC(=O)[C@H](CC(=O)O)NC(=O)[C@@H]1CCCN1C(=O)[C@H](CCCNC(=N)N)NC(=O)C1(N)CCCCC1)C(=O)N1CCC[C@H]1C(=O)N[C@@H](CCCNC(=N)N)C(=O)N1CCC[C@H]1C(=O)N[C@@H](CCCNC(=N)N)C(=O)N1CCC[C@H]1C(=O)N1CCC[C@H]1C(=O)N[C@@H](CCCNC(=N)N)C(=O)N1CCC[C@H]1C(=O)N[C@H](C(=O)N[C@@H](CCCNC(=N)N)C(N)=O)C(C)C [ARV-1502, Chex1-Arg20 amide] (H-[Ac6c]RPDKPRPYLPRPRPPRPVR-NH2)",plasma concentration after 2 h,"[1]; both, Sprague-Dawley, iv, 0.25 mg/kg, 2 h",2.2 ± 0.4 ng/mL
same,Cmax extrapolated in proportion to dose,[1],~ 34 μg/mL
same,"volume of distribution after IM, fold higher than after IV",[1],more than 4 fold
same,AUMC0→∞,"[1]; iv, 0.25 mg/kg",194.6 μg·min^2/mL
same,k,"[1]; iv, 0.25 mg/kg",0.045 min⁻¹
same,plasma concentration lower in male rats than in female rats,"[1]; iv, 0.25 mg/kg",around 25%
same,volume of distribution as share of the theoretical circulating blood volume,"[1]; iv, 0.25 mg/kg",85%
same,clearance rate in dogs relative to the rate in rats,[2],around half
same,"volume of distribution after IM, fold larger than the BV",[2],more than 9 fold
same,AUMC0→∞,"[2]; iv, 0.075 mg/kg",820.3 μg·min^2/mL
same,k,"[2]; iv, 0.075 mg/kg",0.09 min⁻¹
same,volume of distribution as share of circulating blood volume (BV),"[2]; iv, 0.075 mg/kg",~ 84%
same,plasma concentration 2 min after administration,"[2]; male, Beagle, iv, 75 ug/kg, 2 min",690 ± 150 ng/mL
same,half-life,in vivo [3]; im,24.2 min
same,MRT,"in vivo [3]; iv, 0.25 mg/kg",6.22 min
same,half-life,"in vivo [3]; iv, 0.25 mg/kg",15.4 min
same,Cmax,"in vivo [3]; both, im, 2.5 mg/kg",12000 ng/mL
same,Tmax,"in vivo [3]; both, im, 2.5 mg/kg",15 min
same,level at 5 min,"in vivo [3]; both, im, 2.5 mg/kg, plasma concentration after 5 min",11000 ± 3300 ng/mL
same,level at 0.5 h,"in vivo [3]; both, im, 2.5 mg/kg",~900 ng/mL
same,level at 3 h,"in vivo [3]; both, im, 2.5 mg/kg, plasma concentration within 3 h",16 ng/mL
same,AUC(0-inf),"in vivo [3]; both, iv, 0.25 mg/kg",521 ng·h/mL
same,Cmax,"in vivo [3]; both, iv, 0.25 mg/kg",3410 ng/mL
same,Tmax,"in vivo [3]; both, iv, 0.25 mg/kg",2 min
same,level at 0.5 h,"in vivo [3]; both, iv, 0.25 mg/kg",64.2 ± 7.3 ng/mL
same,level at 2 h,"in vivo [3]; both, iv, 0.25 mg/kg, plasma concentration after 2 h",2 to 4 ng/mL
same,level at 5 min,"in vivo [3]; female, im, 2.5 mg/kg, plasma concentration after 5 min (initial peptide level)",13800 ± 1900 ng/mL
same,level at 0.25 h,"in vivo [3]; female, im, 2.5 mg/kg, plasma concentration at 15 min",19000 ± 4900 ng/mL
same,level at 5 min,"in vivo [3]; male, im, 2.5 mg/kg, plasma concentration after 5 min (initial peptide level)",8200 ± 1400 ng/mL
same,level at 0.5 h,"in vivo [3]; male, im, 2.5 mg/kg",1000 ng/mL
same,half-life,in vivo [4]; im,15.8 min
same,Vd,"in vivo [4]; im, 0.75 mg/kg",8.14 L
same,C0,"in vivo [4]; iv, 0.075 mg/kg",1040 ng/mL
same,Cmax,"in vivo [4]; iv, 0.075 mg/kg",700 ng/mL
same,MRT,"in vivo [4]; iv, 0.075 mg/kg",7.07 min
same,Vd,"in vivo [4]; iv, 0.075 mg/kg",0.735 L
same,half-life,"in vivo [4]; iv, 0.075 mg/kg",7.6 min
same,Cmax,"in vivo [4]; male, im, 0.75 mg/kg",1000 ng/mL
same,Tmax,"in vivo [4]; male, im, 0.75 mg/kg",15 min
same,level at 5 min,"in vivo [4]; male, im, 0.75 mg/kg, plasma concentration at 5 min",940 ± 280 ng/mL
same,level at 0.25 h,"in vivo [4]; male, im, 0.75 mg/kg, plasma concentration at 15 min",1100 ± 200 ng/mL
same,AUC(0-inf),"in vivo [4]; male, iv, 0.075 mg/kg",144 ng·h/mL
same,level at 2 min,"in vivo [4]; male, iv, 75 ug/kg, plasma concentration 2 min after administration",700 ng/mL
same,level at 0.5 h,"in vivo [4]; male, iv, 75 ug/kg, plasma concentration after 30 min",7.6 ± 1.3 ng/mL
